# Reference: patent US8987245B2, “Composition and method for affecting obesity and related conditions” (priority 2008, dated 2015)
# Entries after “also recorded” stand apart in the source; their conditions may differ.
# Assays:
# [1] = system: diet-induced mouse model of obesity; assay: Experiment I: diet-induced mouse model of obesity, body weight, fat pad weights, caloric intake; type: in vivo, male C57BL/6J mice
# Description: The following experiment involved a diet-induced mouse model of obesity. In particular, male C57BL/6J mice (these wildtype mice are genetically distinct from ob/ob and db/db mice and are not leptin-deficient) were placed on a high fat diet (HFD) or control diet (CON) at 8 wks of age, and MnTBAP or vehicle administration was initiated 5 months later, when all mice were at a steady state body weight. Mice receiving the CON diet served as lean control animals to those receiving the HFD diet. Each of the CON and HFD mice groups were then further divided into two groups. One of the CON and HFD groups was treated with 10 mg MnTBAP/kg of body weight for 30 days, and the other groups received a vehicle for 30 days. The term “vehicle” refers to the solvent used to deliver MnTBAP. In this experiment, MnTBAP was dissolved in 2% bicarbonate (pH 8.0) to a final concentration of 2 mg/mL. Vehicle-treated mice received a volume of vehicle that would have been sufficient to deliver 10 mg of MnTBAP per kg of body weight were the compound present. MnTBAP was purchased from A.G. Scientific Inc., San Diego, Calif. […] The above-identified doses of MnTBAP and vehicle were administered to the mice as daily intraperitoneal injections.
# At the start of the treatment, there were no significant differences in body weight between MnTBAP and vehicle groups within each diet (CON: p=0.99; HFD: p=0.77). In addition, HFD mice were dramatically heavier than CON mice at the start of treatment (p<0.001).
# Before and after treatment, insulin sensitivity (IS) was assessed using an insulin-assisted glucose tolerance test (IA-GTT) after a 16-hour fast. Fasting body weights were measured at the end of each fast just prior to initiation of the IA-GTT. Approximately 5-7 days after the post-treatment IA-GTT, mice were stimulated with insulin ten minutes prior to delivery of an anesthetic cocktail to induce deep anesthesia for harvesting of quadriceps, tibialis anterior, soleus, gastrocnemius, subcutaneous white adipose tissue (SWAT), epididymal white adipose tissue (EWAT), and liver. In addition, SWAT and EWAT weights were measured immediately after harvest. Tissues were snap frozen in liquid nitrogen and stored at −80° C. until analysis. One quadriceps muscle from each mouse was homogenized for biochemical analyses.
# Fasting body weights; fed-state body weights; and plasma glucose levels at various times during the IA-GTT, a test used to assess insulin sensitivity, were compared after treatment using a 2×2 analysis of variance (ANOVA) with repeated measures. Here “repeated measures” refers to the time of glucose measurement during the IA-GTT: 0, 15, 30, 45, 60 min. Subcutaneous white adipose tissue weights; epididymal white tissue adipose weights; caloric consumption; and all biochemical data, such as UCP-2, UCP-3, and PKB expression, were compared using a 2×2 ANOVA without repeated measures.
# [2] = system: diet-induced mouse model of obesity; assay: Experiment I: insulin-assisted glucose tolerance test (IA-GTT), insulin sensitivity; type: in vivo, male C57BL/6J mice; conditions: HFD mice, 10 mg/kg daily, after 16-hour fast
# Description: (§1) The following experiment involved a diet-induced mouse model of obesity. In particular, male C57BL/6J mice (these wildtype mice are genetically distinct from ob/ob and db/db mice and are not leptin-deficient) were placed on a high fat diet (HFD) or control diet (CON) at 8 wks of age, and MnTBAP or vehicle administration was initiated 5 months later, when all mice were at a steady state body weight. Mice receiving the CON diet served as lean control animals to those receiving the HFD diet. Each of the CON and HFD mice groups were then further divided into two groups. One of the CON and HFD groups was treated with 10 mg MnTBAP/kg of body weight for 30 days, and the other groups received a vehicle for 30 days. The term “vehicle” refers to the solvent used to deliver MnTBAP. In this experiment, MnTBAP was dissolved in 2% bicarbonate (pH 8.0) to a final concentration of 2 mg/mL. Vehicle-treated mice received a volume of vehicle that would have been sufficient to deliver 10 mg of MnTBAP per kg of body weight were the compound present. […]
# (§2) Before and after treatment, insulin sensitivity (IS) was assessed using an insulin-assisted glucose tolerance test (IA-GTT) after a 16-hour fast. Fasting body weights were measured at the end of each fast just prior to initiation of the IA-GTT. […] In addition, SWAT and EWAT weights were measured immediately after harvest. […]
# [3] = system: uncoupling protein-3 (UCP3); assay: Experiment I: UCP3 expression in skeletal muscle (quadriceps); type: in vivo, male C57BL/6J mice
# Description: as §1, §2
# protein kinase B (PKB) = assay: Experiment I: PKB activity and expression in skeletal muscle (quadriceps); type: in vivo, male C57BL/6J mice
# Description: The following experiment involved a diet-induced mouse model of obesity. In particular, male C57BL/6J mice (these wildtype mice are genetically distinct from ob/ob and db/db mice and are not leptin-deficient) were placed on a high fat diet (HFD) or control diet (CON) at 8 wks of age, and MnTBAP or vehicle administration was initiated 5 months later, when all mice were at a steady state body weight. Mice receiving the CON diet served as lean control animals to those receiving the HFD diet. Each of the CON and HFD mice groups were then further divided into two groups. One of the CON and HFD groups was treated with 10 mg MnTBAP/kg of body weight for 30 days, and the other groups received a vehicle for 30 days. […]
# as §2
# In addition to affecting weight loss, MnTBAP has been shown by the above experiment to increase insulin sensitivity. […] It is noted that HFD mice were very insulin resistant before treatment (p<0.001), but a main effect for diet after treatment (p=0.3) was not detected, a result that underscores MnTBAP's effect on insulin action.
# [4] = system: diet-induced mouse model of obesity; assay: Experiment II: diet-induced mouse model of obesity, food intake and body weight; type: in vivo, male C57BL/6J mice; conditions: 10 mg/kg for 36 days
# Description: The following experiment involved a diet-induced mouse model of obesity. In particular, male C57BL/6J mice (these wildtype mice are genetically distinct from ob/ob and db/db mice and are not leptin-deficient) were placed on a high fat diet (HFD) or control diet (CON) at 8 wks of age, and MnTBAP or vehicle administration was initiated 6 months later, when all mice were at a steady state body weight. Mice receiving the CON diet served as lean control animals to those receiving the HFD. Each of the CON and HFD mice groups were then further divided into two groups. One of the CON and HFD groups was treated with 10 mg MnTBAP/kg of body weight for 36 days, and the other groups received a vehicle for 36 days. Food intake was measured on days 0, 3, 9, 14 and 35 post-treatment.
# [5] = cited from earlier work
# [6] = many in ob/ob mice, younger mice; cited from earlier work
# [7] = both CON and HFD mice, 10 mg/kg daily i.p. for 30 days
# [8] = HFD mice, quadriceps, 10 mg/kg daily for four weeks
compound,measurement,setting,value
"O=C(O)c1ccc(-c2c3nc(c(-c4ccc(C(=O)O)cc4)c4ccc([n-]4)c(-c4ccc(C(=O)O)cc4)c4nc(c(-c5ccc(C(=O)O)cc5)c5ccc2[n-]5)C=C4)C=C3)cc1.[Mn+3] [MnTBAP, manganese [III] tetrakis (4-benzoic acid) porphyrin]",share of weight loss due to decreased SWAT and EWAT fat deposits,[1]; 10 mg/kg daily i.p. for 30 days,approximately 50%
same,"treatment time until significant weight loss, fed state","[1]; CON mice, 10 mg/kg daily i.p.",27 days
same,body weight less than vehicle-treated mice after treatment,"[1]; CON mice, 10 mg/kg daily i.p. for 30 days, vs CON vehicle",12.4%
same,"treatment time until significant weight loss, fed state","[1]; HFD mice, 10 mg/kg daily i.p.",15 days
same,weight loss after 30 days of treatment,"[1]; HFD mice, 10 mg/kg daily i.p.",dramatic weight loss
same,body weight less than vehicle-treated mice after treatment,"[1]; HFD mice, 10 mg/kg daily i.p. for 30 days, vs HFD vehicle",18.6%
same,EWAT weight compared to vehicle,[1]; [7],dramatic reductions
same,SWAT weight compared to vehicle,[1]; [7],dramatic reductions
same,daily caloric intake,[1]; [7],without affecting daily caloric intake
same,fasting body weight compared to vehicle,[1]; [7],dramatic reductions
same,fasting body weight after treatment vs before treatment,"[1]; both HFD and CON mice, 10 mg/kg daily i.p. for 30 days",lower than before treatment
same,insulin sensitivity (IA-GTT),[2],significantly enhanced insulin sensitivity; also recorded: significantly improved insulin sensitivity
same,UCP3 levels,"[3]; CON mice, skeletal muscle, 10 mg/kg daily",lack of a significant increase
same,UCP3 expression greater than vehicle,[3]; [8],~60%
same,PKB expression,"protein kinase B (PKB); CON mice, 10 mg/kg daily",A statistically significant increase in PKB expression was not observed
same,increase in activity and expression of PKB vs vehicle,protein kinase B (PKB); [8],~60%
same,body weight and fat mass compared to vehicle-treated controls,[4]; CON mice,lost a significant amount
same,food intake vs vehicle,"[4]; CON mice, days 0, 3, 9, 14 and 35",did not differ
same,decrease in caloric intake over the course of the study,[4]; HFD mice,16.6%
same,food intake compared to vehicle-treated controls,[4]; HFD mice,markedly decreased food intake
same,adverse side effects,[5]; doses up to 10 mg/kg of body weight,no known adverse side effects
same,mortality rates and age of death,"[5]; mice, up to a dose of 88 mg/kg of body weight",does not increase mortality rates or decrease age of death
same,body weight change in known studies,[6],either no change in weight or slowed weight gain but did not induce weight loss
